{"source": "patent US9422299B2", "about": "“Substituted [1,2,4]triazolo[4,3-a]pyrazines as selective NK-3 receptor antagonists” (EUROSCREEN SA, priority 2013, dated 2016)", "key": {"[1]": {"biological_target": "T1, human NK-3 receptor (Homo sapiens (Human), UniProt P29371)", "T1 sequence (P29371 whole entry)": "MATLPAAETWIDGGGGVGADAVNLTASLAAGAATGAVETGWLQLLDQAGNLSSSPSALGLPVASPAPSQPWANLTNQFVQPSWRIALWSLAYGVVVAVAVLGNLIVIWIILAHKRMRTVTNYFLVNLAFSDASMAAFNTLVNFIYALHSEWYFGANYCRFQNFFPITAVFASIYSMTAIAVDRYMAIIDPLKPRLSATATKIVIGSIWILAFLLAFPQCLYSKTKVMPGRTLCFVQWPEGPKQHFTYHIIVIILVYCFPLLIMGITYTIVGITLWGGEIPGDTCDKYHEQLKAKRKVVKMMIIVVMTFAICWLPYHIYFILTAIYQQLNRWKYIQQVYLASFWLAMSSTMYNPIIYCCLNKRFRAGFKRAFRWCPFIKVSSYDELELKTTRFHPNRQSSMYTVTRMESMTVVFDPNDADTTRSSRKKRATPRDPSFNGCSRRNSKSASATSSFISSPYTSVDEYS", "experiment": "Aequorin functional assay with human NK-3 receptor (antagonist testing)", "format": "cell-based", "conditions": "read-out: Functional assay: Aequorin assay with human NK-3 receptor hNK-3 - AEQ (antagonist IC50)", "procedure": "Aequorin Assay with Human NK-3 Receptor\nChanges in intracellular calcium levels are a recognized indicator of G protein-coupled receptor activity. The efficacy of compounds of the invention to inhibit NKA-mediated NK-3 receptor activation was assessed by an in vitro Aequorin functional assay. Chinese Hamster Ovary recombinant cells expressing the human NK-3 receptor and a construct that encodes the photoprotein apoaequorin were used for this assay. In the presence of the cofactor coelenterazine, apoaequorin emits a measurable luminescence that is proportional to the amount of intracellular (cytoplasmic) free calcium.\nThe antagonist activity of compounds of the invention is measured following pre-incubation (3 minutes) of the compound (at various concentrations) with the cells, followed by addition of the reference agonist (NKA) at a final concentration equivalent to the EC80 (3 nM) and recording of emitted light (FDSS 6000 Hamamatsu) over the subsequent 90-second period. The intensity of the emitted light is integrated using the reader software. Compound antagonist activity is measured based on the concentration-dependent inhibition of the luminescence response to the addition of Neurokinin A."}, "[2]": {"biological_target": "T1, human NK-3 receptor", "experiment": "3H-SB222200 binding competition assay with human NK-3 receptor", "conditions": "read-out: hNK-3 (Ki)", "procedure": "The affinity of compounds of the invention for the human NK-3 receptor was determined by measuring the ability of compounds of the invention to competitively and reversibly displace a well-characterized NK-3 radioligand in a concentration-dependent manner.\n^3H-SB222200 Binding Competition Assay with Human NK-3 Receptor\nMembranes were prepared from Chinese hamster ovary recombinant cells stably expressing the human NK-3 receptor. The membranes were incubated with 5 nM ^3H-SB222200 (ARC) in a HEPES 25 mM/NaCl 0.1M/CaCl2 1 mM/MgCl2 5 mM/BSA 0.5%/Saponin 10 μg/ml buffer at pH 7.4 and various concentrations of compounds of the invention. The amount of ^3H-SB222200 bound to the receptor was determined after filtration by the quantification of membrane associated radioactivity using the TopCount-NXT reader (Packard)."}, "[3]": {"biological_target": "human NK-1 receptor (Homo sapiens (Human), UniProt P25103)", "sequence (P25103 whole entry)": "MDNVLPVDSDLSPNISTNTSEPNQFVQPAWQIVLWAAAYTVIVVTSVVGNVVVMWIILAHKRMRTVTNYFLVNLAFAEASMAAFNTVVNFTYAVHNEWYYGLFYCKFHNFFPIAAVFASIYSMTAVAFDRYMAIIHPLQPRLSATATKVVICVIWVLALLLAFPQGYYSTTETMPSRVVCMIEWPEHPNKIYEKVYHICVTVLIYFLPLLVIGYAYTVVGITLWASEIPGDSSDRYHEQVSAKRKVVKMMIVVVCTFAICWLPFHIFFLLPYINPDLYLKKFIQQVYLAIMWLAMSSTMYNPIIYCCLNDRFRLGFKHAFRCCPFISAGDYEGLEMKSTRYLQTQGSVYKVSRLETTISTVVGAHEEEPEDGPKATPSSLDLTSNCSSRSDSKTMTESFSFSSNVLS", "experiment": "Selectivity assay: [3H] substance P binding, human NK-1", "conditions": "2 nM [3H] substance P, CHO membranes; read-out: hNK-1 (Ki)", "procedure": "Selectivity of the compounds of the invention was determined over the other human NK receptors, namely NK-1 and NK-2 receptors.\nThe affinity of compounds of the invention for the NK-1 receptor was evaluated in CHO recombinant cells which express the human NK-1 receptor. Membrane suspensions were prepared from these cells. The following radioligand: [^3H] substance P (PerkinElmer Cat#NET111520) was used in this assay. Binding assays were performed in a 50 mM Tris/5 mM MnCl2/150 mM NaCl/0.1% BSA at pH 7.4. Binding assays consisted of 25 μl of membrane suspension (approximately 5 μg of protein/well in a 96 well plate), 50 μl of compound or reference ligand (Substance P) at increasing concentrations (diluted in assay buffer) and 2 nM [^3H] substance P. The plate was incubated 60 min at 25° C. in a water bath and then filtered over GF/C filters (Perkin Elmer, 6005174, presoaked in 0.5% PEI for 2 h at room temperature) with a Filtration unit (Perkin Elmer). The radioactivity retained on the filters was measured by using the TopCount-NXT reader (Packard)."}, "[4]": {"biological_target": "hERG channel (Homo sapiens (Human), UniProt Q12809)", "sequence (Q12809 whole entry)": "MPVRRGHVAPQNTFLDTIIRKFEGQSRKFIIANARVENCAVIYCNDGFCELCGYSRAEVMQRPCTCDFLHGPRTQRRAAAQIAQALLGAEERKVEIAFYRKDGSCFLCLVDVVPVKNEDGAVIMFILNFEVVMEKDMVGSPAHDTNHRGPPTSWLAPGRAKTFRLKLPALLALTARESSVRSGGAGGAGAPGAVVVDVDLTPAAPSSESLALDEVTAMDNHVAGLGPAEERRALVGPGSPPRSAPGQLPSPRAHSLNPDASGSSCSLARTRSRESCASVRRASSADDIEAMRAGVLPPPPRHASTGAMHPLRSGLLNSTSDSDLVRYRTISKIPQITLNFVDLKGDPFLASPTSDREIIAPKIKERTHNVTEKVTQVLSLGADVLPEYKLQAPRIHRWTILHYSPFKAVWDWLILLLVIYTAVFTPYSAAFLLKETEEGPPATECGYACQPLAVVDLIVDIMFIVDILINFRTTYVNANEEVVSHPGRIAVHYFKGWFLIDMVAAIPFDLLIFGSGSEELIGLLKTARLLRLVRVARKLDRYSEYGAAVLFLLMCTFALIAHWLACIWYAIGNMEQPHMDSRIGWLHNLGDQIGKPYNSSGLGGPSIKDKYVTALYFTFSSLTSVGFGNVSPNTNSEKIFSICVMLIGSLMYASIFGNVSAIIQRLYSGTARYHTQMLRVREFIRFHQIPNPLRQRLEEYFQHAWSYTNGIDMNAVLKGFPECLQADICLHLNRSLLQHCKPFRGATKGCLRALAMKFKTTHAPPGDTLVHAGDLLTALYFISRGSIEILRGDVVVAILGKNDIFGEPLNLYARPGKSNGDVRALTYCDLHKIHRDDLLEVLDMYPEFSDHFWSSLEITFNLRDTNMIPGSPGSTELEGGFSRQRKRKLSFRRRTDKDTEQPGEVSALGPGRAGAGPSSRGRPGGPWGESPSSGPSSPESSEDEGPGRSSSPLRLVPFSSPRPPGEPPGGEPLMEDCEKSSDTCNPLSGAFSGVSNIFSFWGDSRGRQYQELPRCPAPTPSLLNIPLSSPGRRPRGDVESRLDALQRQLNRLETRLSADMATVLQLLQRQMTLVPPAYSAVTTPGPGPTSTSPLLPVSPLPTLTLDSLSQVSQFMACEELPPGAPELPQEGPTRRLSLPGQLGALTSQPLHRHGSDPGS", "experiment": "hERG inhibition assay (manual patch-clamp, HEK 293 cells)", "format": "cell-based", "conditions": "5 minutes of exposure, read-out: CardioSafety (hERG IC50)", "procedure": "The human ether-a-go-go related gene (hERG) encodes the inward rectifying voltage gated potassium channel in the heart (IKr) which is involved in cardiac repolarisation. […] IKr current inhibition accounts for the vast majority of known cases of drug-induced QT-prolongation.\nWhole-cell currents (acquisition by manual patch-clamp) elicited during a voltage pulse were recorded in baseline conditions and following application of tested compounds (5 minutes of exposure). The concentrations of tested compounds (0.3 μM; 3 μM; 10 μM; 30 μM) reflect a range believed to exceed the concentrations at expected efficacy doses in preclinical models.\nThe current density recorded were normalized against the baseline conditions and corrected for solvent effect and time-dependent current run-down using experimental design in test compound free conditions."}, "[5]": {"biological_target": "human NK-2 receptor (Homo sapiens (Human), UniProt P21452)", "sequence (P21452 whole entry)": "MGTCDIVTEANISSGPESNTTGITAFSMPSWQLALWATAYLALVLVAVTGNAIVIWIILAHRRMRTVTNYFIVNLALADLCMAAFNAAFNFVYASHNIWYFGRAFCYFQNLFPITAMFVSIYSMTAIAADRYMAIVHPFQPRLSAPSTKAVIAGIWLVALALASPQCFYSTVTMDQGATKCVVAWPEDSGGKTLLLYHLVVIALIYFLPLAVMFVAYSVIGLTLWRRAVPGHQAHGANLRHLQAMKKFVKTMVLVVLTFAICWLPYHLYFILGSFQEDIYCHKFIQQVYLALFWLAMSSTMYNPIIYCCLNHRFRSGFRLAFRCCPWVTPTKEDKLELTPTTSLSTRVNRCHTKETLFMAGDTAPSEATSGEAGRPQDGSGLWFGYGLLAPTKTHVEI", "experiment": "Selectivity assay: [125I]-Neurokinin A binding, human NK-2", "conditions": "0.1 nM [125I]-Neurokinin A, CHO membranes; read-out: hNK-2 (Ki)", "procedure": "The affinity of compounds of the invention for the NK-2 receptor was evaluated in CHO recombinant cells which express the human NK-2 receptor. Membrane suspensions were prepared from these cells. […] Binding assays were performed in a 25 mM HEPES/1 mM CaCl2/5 mM MgCl2/0.5% BSA/10 μg/ml saponin, at pH 7.4. […] The radioactivity retained on the filters was measured by using the TopCount-NXT reader (Packard)."}, "[6]": {"tested_on": "plasma protein", "experiment": "Determination of plasma protein binding (equilibrium dialysis)", "format": "in vitro ADME", "conditions": "4 hours at 37° C.", "text": "Determination of Plasma Protein Binding\nThe pharmacokinetic and pharmacodynamic properties of chemicals/drugs are largely a function of the reversible binding of chemicals to plasma or serum proteins. […] Consequently, the extent of the plasma protein binding (PPB) of a compound influences its action as well as its distribution and elimination.\nThe determination of plasma protein binding (PPB) of a compound is enabled by equilibrium dialysis, an accepted and standard method for reliable estimation of the non-bound drug fraction in plasma. RED (Rapid Equilibrium Dialysis) device insert is made of two side-by-side chambers separated by an O-ring-sealed vertical cylinder of dialysis membrane (MWCO˜8,000). […] After 4 hours incubation at 37° C. under shaking, an aliquot is removed from each chamber and analyzed by a LC-MS/MS procedure enables the determination of both free and bound drug.\nThe “free fraction” may be calculated as 100%-% rPPB (i.e. the complementary percentage of that disclosed in Table 4, corresponding to the drug concentration that is unbound and therefore available to engage biological target and elicit pharmacological activity)."}}, "note": "pIC50, pKi: −log10 of the molar value."}
{"smiles": "COc1cccc(C(=O)N2CCn3c(-c4nc(C)ns4)nnc3[C@H]2C)c1", "note": "[Compound 27, (R)-(3-methoxyphenyl)(8-methyl-3-(3-methyl-1,2,4-thiadiazol-5-yl)-5,6-dihydro-[1,2,4]triazolo[4,3-a]pyrazin-7(8H)-yl)methanone]", "values": [{"measurement": "pIC50", "setting": "[1]", "result": 6.66}, {"measurement": "pKi", "setting": "[2]", "result": 7.00}, {"measurement": "pKi", "setting": "[3]", "result": "< 4.52"}, {"measurement": "pIC50", "setting": "[4]", "result": "≤ 4.15"}, {"measurement": "pKi", "setting": "[5]", "result": "< 4.52"}, {"measurement": "Exposure (% rPPB), bound drug fraction to the plasma protein", "setting": "[6]", "result": 24, "unit": "%"}]}
